Patent publication US20070185197A1, “Phenol derivative, medicinal composition containing the same, and medicinal use thereof” (priority 2004, published 2007)

Biological target: T1, human SGLT2 (Homo sapiens, UniProt P31639)
T1 construct: expressed in transfected cells
T1 sequence (P31639 1-672): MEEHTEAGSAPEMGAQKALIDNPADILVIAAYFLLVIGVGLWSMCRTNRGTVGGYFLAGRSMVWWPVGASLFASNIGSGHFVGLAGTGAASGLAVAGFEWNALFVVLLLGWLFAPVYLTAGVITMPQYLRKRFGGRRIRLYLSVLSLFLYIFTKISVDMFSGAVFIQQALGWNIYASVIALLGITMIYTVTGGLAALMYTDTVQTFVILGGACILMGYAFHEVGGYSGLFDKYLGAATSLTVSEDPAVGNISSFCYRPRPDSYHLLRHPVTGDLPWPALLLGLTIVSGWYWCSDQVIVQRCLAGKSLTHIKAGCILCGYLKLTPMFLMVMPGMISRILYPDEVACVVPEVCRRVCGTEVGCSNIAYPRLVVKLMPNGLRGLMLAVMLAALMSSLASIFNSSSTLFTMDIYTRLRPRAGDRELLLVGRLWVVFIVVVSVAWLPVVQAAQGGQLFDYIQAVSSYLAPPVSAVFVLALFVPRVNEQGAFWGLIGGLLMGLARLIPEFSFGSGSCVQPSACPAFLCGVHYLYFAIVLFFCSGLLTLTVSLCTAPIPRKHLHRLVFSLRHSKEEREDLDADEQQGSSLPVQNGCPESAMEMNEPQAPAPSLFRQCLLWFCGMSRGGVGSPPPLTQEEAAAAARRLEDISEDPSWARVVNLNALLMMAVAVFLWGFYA
Assay: Assay for inhibitory effects on human SGLT2 activity (uptake of methyl-α-D-glucopyranoside in CS2-5E cells)
Type: cell-based
Conditions: inhibition of 14C-labeled α-MG uptake (1 mM), CHO-K1 cells stably expressing human SGLT2 (CS2-5E), 37° C., 1 hour
Method: Assay for Inhibitory Effects on Human SGLT2 Activity 1) Cloning and Construction of the Vector Expressing Human SGLT2 The cDNA library was prepared for PCR amplification by reverse transcription from total RNA deprived from human kidney (Ori gene) using oligo-dT as a primer. Using this cDNA library as a template, the DNA fragment coding 2 to 2039 bp of human SGLT2 (ACCESSION: M95549, M95299), which was reported by R. G. Wells et al., was amplified by PCR method and inserted into the multi-cloning site of pcDNA3.1 (−) (Invitrogen). The DNA sequence inserted was perfectly matched to the previously reported sequence. 2) Establishment of Cell Line Stably Expressing Human SGLT2 The expression vector of human SGLT2 was digested by Sca I into a linear DNA. The linear DNA was transfected into CHO-K1 cells by means of lipofection (Effectene Transfection Reagent: QIAGEN). Neomycin resistant cell lines were selected by culture in the medium containing G418 (1 mg/mL, LIFE TECHNOLOGIES), and then the activity against the uptake of methyl-α-D-glucopyranoside was measured by the method described below. […] Radioactivity was measured by means of micro-scintillation counter TopCount (Packard). One hundred % was set to the difference between the uptake in the control group and the basal uptake, and the uptake of methyl α-D-glucopyranoside at each drug concentration were calculated. […]

IC50: 86 nM
SMILES: COc1ccc(Cc2ccccc2O[C@@H]2O[C@H](CF)[C@@H](O)[C@H](O)[C@H]2O)cc1 [Example 1, 2-(4-Methoxybenzyl)phenyl 6-deoxy-6-fluoro-β-D-glucopyranoside]
